# Experimental data reported in US9987299B2, “Methods of improving RNAi in well-differentiated airway epithelia” (University of Iowa Research Foundation, priority 2014, dated 2018).
# Legend:
# CFTR channel activity = assay: Transepithelial short-circuit current and conductance in HAE; assay type: cell-based, human; settings: PAF treated and CFTR DsiRNA transduced cells
# RSV N and P protein = assay: RSV protein immunoblot in infected HAE; assay type: cell-based, Respiratory Syncytial Virus; settings: PAF with RSV N DsiRNA; immunoblot 48 hours after infection
# Excerpt: (§1) FIG. 6. […] HAE was either treated or untreated with PAF in concurrence with RSV N DsiRNA. Six hours later the cells were infected with RSV at an MOI of 1. Forty eight hours later, the cell washings from the apical surface was collected and assayed for viral titer (a). The cells were lysed and the proteins visualized after immunoprecipitation with anti-RSV antibodies (b) and the bands quantified by densitometry (c). Data are mean±SD from the results three different experiments, each using a different donor. ***p<0.001 (Student's t-test).
# (§2) RSV infection of HAE for both for immunoblot and viral titer was done at an MOI of 1. The virus was thawed at 37° C. and diluted in MEM (0% FCS) to a volume of 70 μl (1MOI)/well. The cells in Millicell filters were rinsed with the same media once and the virus applied to the apical surface. The plate was incubated at 37° C. for a period of 2 hours. After the incubation period, the virus inoculum was rinsed with MEM three times to remove any traces of the virus. The plates were then incubated at 37° C. until used for the assay.
# HAE were rinsed with PBS and lysed in RIPA buffer (1% NP-40, 0.5% sodium deoxycholate, 0.1% SDS, 50 mM Tris, protease inhibitors [complete; mini, EDTA-free; Roche Biochemicals, Indianapolis, Ind.]) for 30 minutes at 4° C. […] The supernatant was quantified by BCA protein assay kit (Pierce, Rockford, Ill.). […]
# Human CFTR mRNA = assay: CFTR mRNA silencing by CFTR DsiRNA-Transductin in well-differentiated HAE (RT-qPCR); assay type: cell-based; settings: CFTR DsiRNA with simultaneous PAF treatment or spiperone pre-treatment
# Experimental: FIG. 4. […] Alternatively, spiperone was applied apically and basolaterally to well-differentiated HAE for 6 hours, and then removed by rinsing before incubation for 4 hours with CFTR-targeting or NC1 DsiRNAs complexed with Transductin. In both cases, 24 hours after transfection, and RNA levels quantified by RT-qPCR. (b) A representative immunoblot from similarly treated wells, but cells were lysed and proteins visualized after immunoprecipitation with anti-CFTR antibody. Alpha-tubulin was used as a loading control. (c) Densitometry readings of immunoblots with results normalized to NC1 treated samples. In all cases, data are from 3 biological replicates and are mean±SD. ***p<0.001, **p<0.01 (Student's t-test).
# For well-differentiated airway epithelia, transfection was performed mostly according to the manufacturer's protocol. […]
# Total RNA was isolated using SV96 RNA isolation kit (Promega, Madison, Wis.), according to manufacturer's protocol. […] One-fifteenth of the cDNA was then amplified and analyzed by using the 5′-nuclease assay in a 7900 Real Time PCR System (Applied Biosystems, Foster city, CA) using primer-probe pairs reaction buffer and Immolase DNA polymerase (Bioline, Taunton, Mass.). […] Absolute quantification of an mRNA target sequence within an unknown sample was determined by reference to a standard curve. […]
# RSV strain A2 = assay: RSV titer in apical washings of infected HAE (plaque assay on HEp-2 cells); assay type: cell-based, Respiratory Syncytial Virus
# Excerpt: as §1
# For infections, RSV aliquots were resuspended in cold DMEM or DMEM/F12. RSV strain A2 (wt RSV) was kindly provided by Barney Graham (NIH, Bethesda, Md.), and working stocks of RSV were prepared in HEp-2 cells (ATCC).
# as §2, with “After the incubation period, the virus inoculum was rinsed with MEM three times to remove any traces of the virus. The plates were then incubated at 37° C. until used for the assay.” left out
# HEp-2 cells were seeded onto 12-well plate at a sufficient density so that it reached 90-95% confluence the next day. […] The cells were incubated for an additional 24 hours at 37° C. after which the plaques were counted under a light box. […]
substance,measurement,setting,value
platelet activating factor [PAF],cAMP-activated changes in transepithelial current and conductance,CFTR channel activity,significantly reduced
same,RSV N and P protein abundance compared to untreated control cells,RSV N and P protein,reduced
same,silencing of CFTR mRNA levels,Human CFTR mRNA,approximately 30%
same,reduction of viral titers from apical rinses,"RSV strain A2; PAF with RSV N DsiRNA-Transductin, RSV MOI 1 six hours later, 48 hours after infection",more than 100 fold
same,effect on viral titers,RSV strain A2; PAFR activation alone (no RSV N DsiRNA effect),did not reduce viral titers
